Assay results reported in US8247404B2, “Derivatives of 2-oxoalkyl-1-piperazin-2-one, preparation method thereof and therapeutic use of same” (Sanofi, priority 2008, dated 2012).
Counter-ions that a name gives are not always drawn.

Key:
p75NTR receptor [1] = target: T1, p75NTR receptor (Homo sapiens, UniProt P08138); assay: Binding of 125I NGF to the p75NTR receptor (competition, SK-N-BE Bep 75 cell suspension); design: the Bep 75 clone, stably expressing the whole form of the human p75^NTRreceptor; expressed in transfected cells; host or cells: SK-N-BE Bep 75 (human neuroblastoma clone, hygromycin selection); conditions: SK-N-BE Bep 75 cells; 125I NGF 0.3 nM
T1 sequence (P08138 29-427): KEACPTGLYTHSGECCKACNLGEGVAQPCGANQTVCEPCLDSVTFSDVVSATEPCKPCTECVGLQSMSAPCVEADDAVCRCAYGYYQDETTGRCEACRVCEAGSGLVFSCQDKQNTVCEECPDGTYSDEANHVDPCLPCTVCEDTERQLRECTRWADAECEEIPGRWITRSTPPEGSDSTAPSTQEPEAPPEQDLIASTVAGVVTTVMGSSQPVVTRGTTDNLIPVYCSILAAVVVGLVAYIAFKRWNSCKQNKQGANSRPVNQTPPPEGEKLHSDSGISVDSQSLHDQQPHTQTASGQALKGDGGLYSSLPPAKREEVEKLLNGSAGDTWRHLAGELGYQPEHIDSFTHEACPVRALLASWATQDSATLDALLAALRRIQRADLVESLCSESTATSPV
Method: (§1) The SK-N-BE parent strain (human neuroblastoma) and the Bep 75 clone, stably expressing the whole form of the human p75^NTRreceptor (SK-N-BE Bep 75) are cultured conventionally in a RPMI culture medium containing FCS (5%), sodium pyruvate (1 mM) and glutamine (4 mM). For the SK-N-BE Bep 75 cells, hygromycin (200 μl/20 ml of medium) is added as selection agent.
Study of the binding of the ^125I NGF to the p75^NTRreceptor
The NGF binding study (nerve grown factor radiolabelled with iodine-125, Amersham—2000 Ci/mmol) is carried out on a cell suspension of the SK-N-BE Bep 75 strain in accordance with the method described by Weskamp (Neuron, 1991, 6, 649-663). The nonspecific binding is determined by measuring the total binding after one hour of pre-incubation with the cells at 37° C. in the presence of non-radiolabelled NGF (1 μM). The specific binding is calculated by the difference between the total binding measurement and the non-specific binding measurement. The competition experiments are carried out using an iodinated NGF (^125I NGF) concentration of 0.3 nM.

[2] = system: human neuroblastoma strains SH-SY-5Y and SK-N-BE Bep 75; assay: Measurement of apoptosis (NGF-induced, cell death detection ELISA); assay type: cell-based; conditions: SH-SY5Y, NGF 10 ng/ml, cell strain not given, read-out: IC50, inhibitory activity on NGF-induced apoptosis
Method: The SH-SY-5Y strain (human neuroblastoma) is cultured conventionally in a DMEM culture medium (Dulbecco's Modified Eagle's Medium) (Gibco BRL, France) containing FCS (5%) (foetal calf serum) (Boehringer Mannheim, Germany), sodium pyruvate (1 mM) and glutamine (4 mM) in culture flasks coated with collagen (Becton Dickinson, France).
as §1
The cells (human neuroblastoma strains SH-SY-5Y and SK-N-BE Bep 75) are placed in 35 mm diameter Petri dishes (Biocoat collagen I), (10^5cells/well) in an appropriate culture medium containing 5% of FCS for 24 h. […] The degrees of apoptosis are measured 48 hours after the treatments in the case of the SH-SY-5Y strain, and 24 hours after the treatments in the case of the SK-N-BE Bep 75 strain, by quantification of the DNA fragment-associated cytoplasmic histones (cell death detection ELISA, Boehringer Mannheim, Germany). The degrees of apoptosis are expressed as amount of oligonucleosomes/10^5cells. […]

p75NTR receptor [3] = target: T1, p75NTR receptor; assay: Dimerization of the p75NTR receptor independently of its ligand (soluble p75NTR-alkaline phosphatase binding to SK-N-BE Bep 75 cells); design: the Bep 75 clone, stably expressing the whole form of the human p75^NTRreceptor; a soluble form of the p75^NTRreceptor (extracellular part of the receptor); expressed in transfected cells; host or cells: SK-N-BE Bep 75 cells (membrane receptor); transiently transfected HEK293 cells (secreted soluble p75NTR-alkaline phosphatase, used as culture supernatant); conditions: soluble p75NTR-alkaline phosphatase 10 nM, 1 h preincubation at 37° C.
Method: as §1
Study of the dimerization of the p75^NTRreceptor independently of its ligand
The p75^NTRreceptor dimerization study is carried out on a cell suspension of the SK-N-BE Bep 75 strain. The cells (2.5 10^4cells/well) are placed in wells (96-well plate) for 24 h, and then preincubated for 1 h at 37° C. in the presence or absence of the compounds according to the invention. Supernatant is then added, this supernatant being derived from the culture of HEK293 human cells of renal origin expressing, after 48 h of transfection, and secreting a soluble form of the p75^NTRreceptor (extracellular part of the receptor) coupled to an alkaline phosphatase, at the final concentration of 10 nM. The quantification of the specific binding of the soluble p75^NTRreceptor to the receptor present on SK-N-BE Bep 75 cells is determined by measuring the alkaline phosphatase enzymatic activity after incubation of the cells for 1 hour at 37° C. in the presence of the supernatant. After filtration and transfer of the filters into 24-well plates, the alkaline phosphatase activity is determined by adding CDP-Star chemiluminescent substrate (ready-to-use, Roche).

melting point [°C] | IC50 (p75NTR receptor [1]) [nM] | IC50 (p75NTR receptor [3]) [nM] | Structure (SMILES) | IC50 [2] [nM]
236 to 239 | – | – | Cc1ccc(N2CCN(CC(=O)N3CC=C(c4ccc(Cl)c(C(F)(F)F)c4)CC3)CC2=O)nc1 (as salt: HCl) [Compound 2, 4-{2-[4-(4-chloro-3-trifluoromethylphenyl)-3,6-dihydro-2H-pyridin-1-yl]-2-oxoethyl}-1-(5-methylpyridin-2-yl)piperazin-2-one] | –
– | 5.2 | 1.34 | O=C(CN1CCN(c2ccc(C(F)(F)F)cn2)C(=O)C1)N1CC=C(c2ccc(Cl)c(C(F)(F)F)c2)CC1 [Compound 1, 4-{2-[4-(4-chloro-3-trifluoromethylphenyl)-3,6-dihydro-2H-pyridin-1-yl]-2-oxoethyl}-1-(5-trifluoromethylpyridin-2-yl)piperazin-2-one] | 1.61
– | – | 3.88 | Cc1ccc(N2CCN(CC(=O)N3CC=C(c4ccc(Cl)c(C(F)(F)F)c4)CC3)CC2=O)nc1 [Compound 2, 4-{2-[4-(4-chloro-3-trifluoromethylphenyl)-3,6-dihydro-2H-pyridin-1-yl]-2-oxoethyl}-1-(5-methylpyridin-2-yl)piperazin-2-one] | –

The remaining lines, values behind:

Structure (SMILES) | melting point [°C] | IC50 (p75NTR receptor [1]) [nM] | IC50 (p75NTR receptor [3]) [nM] | IC50 [2] [nM]
O=C(CN1CCN(c2ccc(C(F)(F)F)cn2)C(=O)C1)N1CC=C(c2ccc(Cl)c(C(F)(F)F)c2)CC1 (as salt: HCl) [Compound 1, 4-{2-[4-(4-chloro-3-trifluoromethylphenyl)-3,6-dihydro-2H-pyridin-1-yl]-2-oxoethyl}-1-(5-trifluoromethylpyridin-2-yl)piperazin-2-one] | 210 to 211 | – | – | –
O=C(CN1CCN(c2ccccn2)C(=O)C1)N1CC=C(c2ccc(Cl)c(C(F)(F)F)c2)CC1 (as salt: HCl) [Compound 5, 4-{2-[4-(4-chloro-3-trifluoromethylphenyl)-3,6-dihydro-2H-pyridin-1-yl]-2-oxoethyl}-1-pyridin-2-ylpiperazin-2-one] | 160 to 163 | – | – | –
O=C(CN1CCN(c2ccc(C(F)(F)F)cn2)C(=O)C1)N1CC=C(c2ccc(Cl)cc2)CC1 [Compound 3, 4-{2-[4-(4-chlorophenyl)-3,6-dihydro-2H-pyridin-1-yl]-2-oxoethyl}-1-(5-trifluoromethylpyridin-2-yl)piperazin-2-one] | 141 to 143 | 0.1 | 0.11 | –
O=C(CN1CCN(c2ccccn2)C(=O)C1)N1CC=C(c2ccc(Cl)c(C(F)(F)F)c2)CC1 [Compound 5, 4-{2-[4-(4-chloro-3-trifluoromethylphenyl)-3,6-dihydro-2H-pyridin-1-yl]-2-oxoethyl}-1-pyridin-2-ylpiperazin-2-one] | – | – | – | 52
